Usually EC50 stands for the concentration needed to bring the measured effect to its halfway point.

T1 sequence (O14842 whole entry): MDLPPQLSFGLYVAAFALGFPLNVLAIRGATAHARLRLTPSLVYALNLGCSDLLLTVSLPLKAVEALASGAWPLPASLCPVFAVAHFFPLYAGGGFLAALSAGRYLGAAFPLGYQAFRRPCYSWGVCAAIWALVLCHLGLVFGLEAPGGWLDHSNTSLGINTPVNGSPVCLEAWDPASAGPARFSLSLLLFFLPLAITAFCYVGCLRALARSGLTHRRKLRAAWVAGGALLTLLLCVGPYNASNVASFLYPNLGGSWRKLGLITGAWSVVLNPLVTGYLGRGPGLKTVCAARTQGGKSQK

The target in the first assay is T1, Human GPR40 (Homo sapiens, UniProt O14842). Briefly: Inositol Phosphate Turnover (IP1) Assay. Conditions: HEK cells stably expressing human GPR40, CisBio IP-One kit. Details: expressed in transfected cells; host or cells: HEK cells (stably expressing the aequorin reporter). It counts as cell-based. The method, then:
(§1) Human and mouse GPR40 stable cell-lines were generated in CHO cells stably expressing NFAT BLA (Beta-lactamase). A human GPR40 stable cell-line was generated in HER cells stably expressing the aequorin expressing reporter. The expression plasmids were transfected using lipofectamine (Life Technologies) following manufacturer's instructions. Stable cell-lines were generated following drug selection.
The assay is performed in 384-well format. HEK cells stably expressing human GPR40 are plated at 15,000 cells per well in growth medium (DMEM/10% fetal calf serum). Cell plates are then incubated 16 hours at 37 degrees in a 5% CO2 incubator.
Measurement of Inositol Phosphate Turnover (IP1) is performed using the CisBio IP-One kit (Part number 62IPAPEB). After the 16 hour incubation, the cells are washed with HEPES buffer and 10 ul of stimulation buffer (prepared as described in the kit) is added to each well. In a separate plate, compounds are diluted in DMSO (400-fold over the final concentration in the assay well) and 25 nl is acoustically transferred to the appropriate well in the assay cell plate. The plates are then incubated for 60 minutes at 37 degrees. 10 ul of detection buffer (also prepared as described in the IP-One kit) is added to each well and the plates are incubated for 60 minutes in the dark. The plates are then read in a Perkin Elmer EnVision or equivalent reader able to measure FRET. Fluorescent ratio of emission at 665 and 620 nm is then converted to IP1 concentration by back calculating from an IP1 standard curve prepared at the time of the assay.
`CC1(C)CNC(c2ccccc2C(F)(F)F)c2cc(COc3cc4c(cn3)[C@H]3[C@@H](C4)[C@@H]3C(=O)O)c(F)cc21` (single isomer, unassigned) [Example 72] returned an EC50 of 5.13 nM.

On to `C=C(C)CCOc1ccc(C2CCCc3ccc(COc4cc5c(cn4)[C@H]4[C@@H](C5)[C@@H]4C(=O)O)cc32)c(C)n1` (stereo partly drawn) [Example 31, (5aR,6S,6aS)-3-((8-(2-methyl-6-((3-methylbut-3-en-1-yl)oxy)pyridin-3-yl)-5,6,7,8-tetrahydronaphthalen-2-yl)methoxy)-5,5a,6,6a-tetrahydrocyclopropa[4,5] cyclopenta[1,2-c]pyridine-6-carboxylic acid], for which the EC50 was found to be 214 nM. Take `O=C(O)[C@H]1[C@@H]2Cc3cc(OCc4ccc5c(c4)C(c4ccccc4C(F)(F)F)CC54CCC4)ncc3[C@@H]21` (stereo partly drawn) [Example 6, (5aR,6S,6aS)-3-((3′-(2-(trifluoromethyl)phenyl)-2′,3′-dihydrospiro[cyclobutane-1,1′-inden]-5′-yl)methoxy)-5,5a,6,6a-tetrahydrocyclopropa[4,5]cyclopenta[1,2-c]pyridine-6-carboxylic acid]: the EC50 stood at 22.6 nM. The compound `Cc1c(COc2cc3c(cn2)[C@H]2[C@@H](C3)[C@@H]2C(=O)O)ccc2c1C(c1ccccc1C(F)(F)F)CCC2` (stereo partly drawn) [Example 43, (5aR,6S,6aS)-3-((1-methyl-8-(2-(trifluoro-methyl)phenyl)-5,6,7,8-tetrahydro-naphthalen-2-yl)methoxy)-5,5a,6,6a-tetrahydrocyclopropa[4,5] cyclopenta[1,2-c]pyridine-6-carboxylic acid] displayed an EC50 of 70.8 nM.

For the compound `COc1ccc(F)c(N2CC(C)(C)c3cc(F)c(COc4cc5c(cn4)[C@H]4[C@@H](C5)[C@@H]4C(=O)O)cc32)c1` [Example 56, (5aR,6S,6aS)-3-((5-fluoro-1-(2-fluoro-5-methoxyphenyl)-3,3-dimethylindolin-6-yl)methoxy)-5,5a,6,6a-tetrahydrocyclopropa[4,5]cyclopenta[1,2-c]pyridine-6-carboxylic acid], the 50% effective concentration (EC50) stood at 43.8 nM. `O=C(O)[C@H]1[C@@H]2Cc3cc(OCc4cc5c(cc4F)CCOC5c4ccccc4C(F)(F)F)ncc3[C@@H]21` (single isomer, unassigned) [Example 60] displayed an EC50 of 10.8 nM. Take `O=C(O)[C@H]1[C@@H]2Cc3cc(OCc4cc5c(-c6ccccc6C(F)(F)F)cn(-c6ccccc6)c5cc4F)ncc3[C@@H]21` [Example 63, (5aR,6S,6aS)-3-((6-fluoro-1-phenyl-3-(2-(trifluoromethyl)phenyl)-1H-indol-5-yl)methoxy)-5,5a,6,6a-tetrahydrocyclopropa[4,5]cyclopenta[1,2-c]pyridine-6-carboxylic acid]: the midpoint of the response, the EC50, lay at 28.2 nM.

In turn, `CC1(C)CC(C)(C)c2cc(COc3cc4c(cn3)[C@H]3[C@@H](C4)[C@@H]3C(=O)O)c(F)cc21` [Example 76, (5aR,6S,6aS)-3-((6-fluoro-1,1,3,3-tetramethyl-2,3-dihydro-1H-inden-5-yl)methoxy)-5,5a,6,6a-tetrahydrocyclopropa[4,5]cyclopenta[1,2-c]pyridine-6-carboxylic acid] returned an EC50 of 17.3 nM. `CC1(C)OC(c2ccccc2C(F)(F)F)c2cc(COc3cc4c(cn3)[C@H]3[C@@H](C4)[C@@H]3C(=O)O)c(F)cc21` (stereo partly drawn) [Example 41, (5aR,6S,6aS)-3-((6-fluoro-1,1-dimethyl-3-(2-(trifluoromethyl)phenyl)-1,3-dihydroisobenzofuran-5-yl)methoxy)-5,5a,6,6a-tetrahydrocyclopropa[4,5]cyclopenta[1,2-c]pyridine-6-carboxylic acid] returned an EC50 of 1.99 nM. For `O=C(O)[C@H]1[C@@H]2Cc3cc(OCc4cccc5c4CCC5c4ccccc4C(F)(F)F)ncc3[C@@H]21` (single isomer, unassigned) [Example 65], the midpoint of the response, the EC50, lay at 124 nM. On the same count and under the same terms, to `O=C(O)[C@H]1[C@@H]2Cc3cc(OCc4cc5c(ccn5Cc5ccccc5C(F)(F)F)cc4F)ncc3[C@@H]21` [Example 78, (5aR,6S,6aS)-3-((5-fluoro-1-(2-(trifluoromethyl)benzyl)-1H-indol-6-yl)methoxy)-5,5a,6,6a-tetrahydrocyclopropa[4,5]cyclopenta[12-c]pyridine-6-carboxylic acid] belongs 195 nM. For the compound `COc1ccc(F)c(C2CC(C)(C)c3cc(F)c(COc4cc5c(cn4)[C@H]4[C@@H](C5)[C@@H]4C(=O)O)cc32)c1` (stereo partly drawn) [Example 45, (5aR,6S,6aS)-3-((6-fluoro-3-(2-fluoro-5-methoxyhenyl)-1,1-dimethyl-2,3-dihydro-1H-inden-5-yl)methoxy)-5,5a,6,6a-tetrahydro-cyclopropa[4,5]cyclopenta [1,2-c]pyridine-6-carboxylic acid], the EC50 is 223 nM. `CN(C)[C@H]1C[C@H](c2ccccc2C(F)(F)F)c2cc(COc3cc4c(cn3)[C@H]3[C@@H](C4)[C@@H]3C(=O)O)c(F)cc21` [Example 79, (5aR,6S,6aS)-3-(((1S,3S)-1-(dimethylamino)-6-fluoro-3-(2-(trifluoromethyl)phenyl)-2,3-dihydro-1H-inden-5-yl)methoxy)-5,5a,6,6a-tetrahydrocyclopropa[4,5]cyclopenta[1,2-c]pyridine-6-carboxylic acid, or (5aR,6S,6aS)-3-(((1R,3R)-1-(dimethylamino)-6-fluoro-3-(2-(trifluoromethyl)phenyl)-2,3-dihydro-1H-inden-5-yl)methoxy)-5,5a,6,6a-tetrahydrocyclopropa[4,5]cyclopenta[1,2-c]pyridine-6-carboxylic acid] gave a concentration giving a half-maximal response (EC50) of 15.4 nM.

The compound `CC1(C)CC(c2ccccc2C(F)(F)F)c2cc(COc3cc4c(cn3)[C@@H]3[C@@H](C(=O)O)[C@@H]3C4(F)F)c(F)cc21` (stereo partly drawn) [Example 24, (5aR,6R,6aR)-5,5-difluoro-3-((6-fluoro-1,1-dimethyl-3-(2-(trifluoromethyl)phenyl)-2,3-dihydro-1H-inden-5-yl)methoxy)-5,5a,6,6a-tetrahydrocyclopropa[4,5]cyclopenta[1,2-c]pyridine-6-carboxylic acid] showed an EC50 of 53 nM. For `CC1(C)CCN(c2ccccc2C(F)(F)F)c2c1ccc(COc1cc3c(cn1)[C@H]1[C@@H](C3)[C@@H]1C(=O)O)c2F` [Example 52, (5aR,6S,6aS)-3-((8-fluoro-4,4-dimethyl-1-(2-(trifluoromethyl)phenyl)-1,2,3,4-tetrahydroquinolin-7-yl)methoxy)-5,5a,6,6a-tetrahydrocyclopropa[4,5]cyclopenta[1,2-c]pyridine-6-carboxylic acid], the response was half-maximal at 29.7 nM (EC50). On the same count and under the same terms, to `O=C(O)[C@H]1[C@@H]2Cc3cc(OCc4cccc5c4CCC5c4ccccc4C(F)(F)F)ncc3[C@@H]21` (single isomer, unassigned) [Example 64] belongs 154 nM. Turning to `O=C(O)[C@H]1[C@@H]2Cc3cc(OCc4cc5c(cnn5-c5ccccc5C(F)(F)F)cc4F)ncc3[C@@H]21` [Example 77, (5aR,6S,6aS)-3-((5-fluoro-1-(2-(trifluoromethyl)phenyl)-1H-indazol-6-yl)methoxy)-5,5a,6,6a-tetrahydrocyclopropa[4,5]cyclopenta[1,2-c]pyridine-6-carboxylic acid], a half-maximal response (EC50) required 7.08 nM. Compound `O=C(O)[C@H]1[C@@H]2Cc3cc(OCc4cc5c(cc4F)C(n4cccn4)CC5c4ccccc4C(F)(F)F)ncc3[C@@H]21` (single isomer, unassigned) [Example 57] had an EC50 of 1.78 nM. `O=C(O)[C@H]1[C@@H]2Cc3cc(OCc4cc5c(cc4F)CCC5c4ccccc4C(F)(F)F)ncc3[C@@H]21` (stereo partly drawn) [Example 20, (5aR,6S,6aS)-3-((6-fluoro-3-(2-(trifluoromethyl)phenyl)-2,3-dihydro-1H-inden-5-yl)methoxy)-5,5a,6,6a-tetrahydrocyclopropa[4,5]cyclopenta[1,2-c]pyridine-6-carboxylic acid] registered a half-maximal effective concentration (EC50) of 10.3 nM. Compound `O=C(O)[C@H]1[C@@H]2Cc3cc(OCc4cc5c(cc4F)C(n4cccn4)CC5c4ccccc4C(F)(F)F)ncc3[C@@H]21` (single isomer, unassigned) [Example 58] came in with an EC50 of 818 nM. `O=C(O)[C@H]1[C@@H]2Cc3cc(OCc4cc5c(cc4F)CCOC5c4ccccc4C(F)(F)F)ncc3[C@@H]21` (some centres unmarked) [Example 59] showed an EC50 of 97.3 nM. Same read-out and setting: to `CC1(C)CC(c2ccccc2C(F)(F)F)c2cc(COc3cc4c(cn3)[C@@]3(C)[C@@H](C4)[C@@H]3C(=O)O)c(F)cc21` (single isomer, unassigned) [Example 75] belongs 157 nM.

The target of the next assay is T1, Human GPR40. Briefly: FLIPR assay, agonist-induced calcium mobilization. The assay is classed as cell-based. Conditions: GPR40/CHO NFAT BLA cells. More on the design: expressed in transfected cells. The method, then: as §1
FLIPR (Fluorimetric Imaging Plate Reader, Molecular Devices) assays were performed to measure agonist-induced calcium mobilization of the stable clones. For the FLIPR assay, one day before assay, GPR40/CHO NFAT BLA cells were seeded into black-wall-clear-bottom 384-well plates (Costar) at 1.4×10e4 cells/20 μL medium/well. The cells were incubated with 20 μl/well of the assay buffer (HMS, 0.1% BSA, 20 mM HEPES, 2.5 mM probenecid, pH 7.4) containing 8 μM fluo-4, AM, 0.08% pluronic acid at room temperature for 100 minutes. Fluorescence output was measured using FLIPR. Compounds were dissolved in DMSO and diluted to desired concentrations with assay buffer. 13.3 μL/well of compound solution was added.
For orientation: Calcium assays in cells follow changes in intracellular calcium, usually with a dye or a luminescent sensor.
With `CC1(C)CNC(c2ccccc2C(F)(F)F)c2cc(COc3cc4c(cn3)[C@H]3[C@@H](C4)[C@@H]3C(=O)O)c(F)cc21` (single isomer, unassigned) [Example 72], the EC50 stood at 5.25 nM. Regarding `C=C(C)CCOc1ccc(C2CCCc3ccc(COc4cc5c(cn4)[C@H]4[C@@H](C5)[C@@H]4C(=O)O)cc32)c(C)n1` (stereo partly drawn) [Example 31, (5aR,6S,6aS)-3-((8-(2-methyl-6-((3-methylbut-3-en-1-yl)oxy)pyridin-3-yl)-5,6,7,8-tetrahydronaphthalen-2-yl)methoxy)-5,5a,6,6a-tetrahydrocyclopropa[4,5] cyclopenta[1,2-c]pyridine-6-carboxylic acid], the EC50 turned out to be 51.9 nM.

In the case of `O=C(O)[C@H]1[C@@H]2Cc3cc(OCc4ccc5c(c4)C(c4ccccc4C(F)(F)F)CC54CCC4)ncc3[C@@H]21` (stereo partly drawn) [Example 6, (5aR,6S,6aS)-3-((3′-(2-(trifluoromethyl)phenyl)-2′,3′-dihydrospiro[cyclobutane-1,1′-inden]-5′-yl)methoxy)-5,5a,6,6a-tetrahydrocyclopropa[4,5]cyclopenta[1,2-c]pyridine-6-carboxylic acid], the EC50 is 22.9 nM. For the compound `Cc1c(COc2cc3c(cn2)[C@H]2[C@@H](C3)[C@@H]2C(=O)O)ccc2c1C(c1ccccc1C(F)(F)F)CCC2` (stereo partly drawn) [Example 43, (5aR,6S,6aS)-3-((1-methyl-8-(2-(trifluoro-methyl)phenyl)-5,6,7,8-tetrahydro-naphthalen-2-yl)methoxy)-5,5a,6,6a-tetrahydrocyclopropa[4,5] cyclopenta[1,2-c]pyridine-6-carboxylic acid], the EC50 stood at 38.8 nM.

The record behind these values is patent publication US10000454B2, “Antidiabetic tricyclic compounds” (Merck Sharp & Dohme Corp., priority 2014, dated 2018).
